According to patent publication US11759455B2, “Substituted 1H-imidazo[4,5-b]pyridin-2(3H)-ones and their use as GLUN2B receptor modulators” (JANSSEN PHARMACEUTICA NV, priority 2016, dated 2023):
Where two headings read alike, the source gives them in different places.

Molecular target: T1, human GluN1/GluN2B NMDA receptors (Homo sapiens, UniProt Q13224)
T1 construct: expressed in transfected cells
Assay: Cell-based calcium flux (FLIPR) assay on cloned human NR1/NR2B ion channels expressed in mammalian cells (standard and HTS buffer variants);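 note: stable Tet-On inducible cell line, Ca2+ influx triggered by glutamate at about EC40 plus 10 µM glycine, fluorescent dye read-out over 5 min, normalized to control wells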

[1] = standard assay buffer (0.5 mM MgCl2 in dye loading buffer; 137 mM NaCl, 4 mM KCl in assay buffer), human GluN1/GluN2B, read-out: NR2B IC50 (μM) standard assay
[2] = standard assay buffer (0.5 mM MgCl2 dye loading; 137 mM NaCl, 4 mM KCl assay buffer), human GluN1/GluN2B cells, read-out: NR2B IC50 (μM) standard assay
[3] = HTS assay buffer (1.5 mM MgCl2 in dye loading buffer; 150 mM NaCl, 3 mM KCl in assay buffer), human GluN1/GluN2B, read-out: NR2B IC50 (μM) HTS assay

T1 sequence (Q13224 27-1484, other chains not shown): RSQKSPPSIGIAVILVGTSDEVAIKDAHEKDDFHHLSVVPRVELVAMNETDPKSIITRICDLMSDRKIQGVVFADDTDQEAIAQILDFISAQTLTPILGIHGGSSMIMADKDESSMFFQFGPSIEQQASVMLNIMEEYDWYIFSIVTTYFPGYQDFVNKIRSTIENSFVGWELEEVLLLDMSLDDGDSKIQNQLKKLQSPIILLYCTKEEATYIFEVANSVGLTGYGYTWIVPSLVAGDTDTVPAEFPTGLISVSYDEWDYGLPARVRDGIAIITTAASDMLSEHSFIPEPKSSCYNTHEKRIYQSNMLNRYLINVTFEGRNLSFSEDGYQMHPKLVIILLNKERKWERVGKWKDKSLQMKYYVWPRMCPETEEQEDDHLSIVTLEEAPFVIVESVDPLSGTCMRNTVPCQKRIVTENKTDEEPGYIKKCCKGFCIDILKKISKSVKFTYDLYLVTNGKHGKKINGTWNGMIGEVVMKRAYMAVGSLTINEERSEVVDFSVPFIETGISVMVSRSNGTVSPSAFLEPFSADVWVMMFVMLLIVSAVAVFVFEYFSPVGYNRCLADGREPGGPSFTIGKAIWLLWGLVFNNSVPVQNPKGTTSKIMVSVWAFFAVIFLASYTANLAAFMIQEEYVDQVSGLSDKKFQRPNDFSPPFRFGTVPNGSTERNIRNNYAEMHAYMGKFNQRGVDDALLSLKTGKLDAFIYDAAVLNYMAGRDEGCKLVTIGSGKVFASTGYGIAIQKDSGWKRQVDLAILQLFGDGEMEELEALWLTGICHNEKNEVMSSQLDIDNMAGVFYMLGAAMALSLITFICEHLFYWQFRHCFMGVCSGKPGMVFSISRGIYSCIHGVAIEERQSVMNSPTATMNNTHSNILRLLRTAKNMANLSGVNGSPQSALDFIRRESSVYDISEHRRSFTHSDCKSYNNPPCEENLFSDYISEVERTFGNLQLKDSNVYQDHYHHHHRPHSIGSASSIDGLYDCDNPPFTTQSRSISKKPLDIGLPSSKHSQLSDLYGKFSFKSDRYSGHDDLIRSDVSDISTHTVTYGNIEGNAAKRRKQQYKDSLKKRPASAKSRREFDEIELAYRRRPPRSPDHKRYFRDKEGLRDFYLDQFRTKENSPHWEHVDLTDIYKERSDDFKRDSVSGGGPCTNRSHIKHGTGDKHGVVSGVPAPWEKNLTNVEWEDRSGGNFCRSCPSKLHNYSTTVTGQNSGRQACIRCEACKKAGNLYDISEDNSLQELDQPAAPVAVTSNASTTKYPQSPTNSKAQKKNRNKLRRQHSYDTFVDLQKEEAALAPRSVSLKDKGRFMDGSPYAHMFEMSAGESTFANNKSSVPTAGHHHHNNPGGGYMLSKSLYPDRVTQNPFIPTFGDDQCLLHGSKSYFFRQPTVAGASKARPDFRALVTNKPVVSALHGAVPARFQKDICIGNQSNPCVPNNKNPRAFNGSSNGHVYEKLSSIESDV

SMILES	IC50 [1] [µM]	IC50 [2] [µM]	also measured
Cn1c(=O)n(CC(=O)N2CC(F)(F)C2)c2cc(-c3ccc(Cl)c(OC(F)F)c3)cnc21 [Example 594, 6-[4-Chloro-3-(difluoromethoxy)phenyl]-1-[2-(3,3-difluoroazetidin-1-yl)-2-oxo-ethyl]-3-methyl-imidazo[4,5-b]pyridin-2-one]	0.082	–	–
Cc1ccccc1-c1cnc2[nH]c(=O)n(CCN3CCCC3)c2c1 [Example 179, 6-(o-Tolyl)-1-(2-pyrrolidin-1-ylethyl)-3H-imidazo[4,5-b]pyridin-2-one]	–	0.707	–
Cc1cccnc1Cn1c(=O)[nH]c2ncc(-c3cccc(F)c3)cc21 [Example 285, 6-(3-Fluorophenyl)-1-[(3-methyl-2-pyridyl)methyl]-3H-imidazo[4,5-b]pyridin-2-one]	–	> 10	–
Cn1c(=O)n(CC(=O)N2CCC2)c2cc(-c3csc(C(F)(F)F)c3)cnc21 [Example 104, 1-[2-(Azetidin-1-yl)-2-oxo-ethyl]-3-methyl-6-[5-(trifluoromethyl)-3-thienyl]imidazo[4,5-b]pyridin-2-one]	–	0.048	–
Cc1ccc(-c2cnc3c(c2)n(CC(=O)N2CCC2)c(=O)n3C)s1 [Example 326, 1-[2-(Azetidin-1-yl)-2-oxo-ethyl]-3-methyl-6-(5-methyl-2-thienyl)imidazo[4,5-b]pyridin-2-one]	0.022	–	–
Cc1cc(-c2cnc3c(c2)n(Cc2cncnc2)c(=O)n3C)ccc1F [Example 48, 6-(4-Fluoro-3-methyl-phenyl)-3-methyl-1-(pyrimidin-5-ylmethyl)imidazo[4,5-b]pyridin-2-one]	–	0.072	–
Cc1cc(C)cc(-c2cnc3[nH]c(=O)n(CCN4CCC4)c3c2)c1 [Example 170, 1-[2-(Azetidin-1-yl)ethyl]-6-(3,5-dimethylphenyl)-3H-imidazo[4,5-b]pyridin-2-one]	–	0.581	–
Cc1cnc(Cn2c(=O)[nH]c3ncc(-c4cccc(C(F)(F)F)c4)cc32)c(F)c1 [Example 234, 1-[(3-Fluoro-5-methyl-2-pyridyl)methyl]-6-[3-(trifluoromethyl)phenyl]-3H-imidazo[4,5-b]pyridin-2-one]	–	1.98	–
Cc1cc(-c2cnc3[nH]c(=O)n(CC(=O)N4CCC4)c3c2)sc1Cl [Example 324, 1-[2-(Azetidin-1-yl)-2-oxo-ethyl]-6-(5-chloro-4-methyl-2-thienyl)-3H-imidazo[4,5-b]pyridin-2-one]	0.015	–	–
O=c1[nH]c2ncc(-c3cccc(OC(F)(F)F)c3)cc2n1CCN1CCC1 [Example 160, 1-[2-(Azetidin-1-yl)ethyl]-6-[3-(trifluoromethoxy)phenyl]-3H-imidazo[4,5-b]pyridin-2-one]	–	0.311	–
Cc1nccc(Cn2c(=O)n(C)c3ncc(-c4cccc(C(F)(F)F)c4)cc32)n1 [Example 248, 3-Methyl-1-[(2-methylpyrimidin-4-yl)methyl]-6-[3-(trifluoromethyl)phenyl]imidazo[4,5-b]pyridin-2-one]	–	2.05	–
COc1cccc(-c2cnc3[nH]c(=O)n(CC4CCCO4)c3c2)c1 (stereo not shown) [Example 475, 6-(3-Methoxyphenyl)-1-(tetrahydrofuran-2-ylmethyl)-3H-imidazo[4,5-b]pyridin-2-one]	–	–	IC50 [3]: 0.157 µM
Cn1c(=O)n(Cc2cccnn2)c2cc(-c3ccc(Cl)c(OC(F)F)c3)cnc21 [Example 543, 6-[4-Chloro-3-(difluoromethoxy)phenyl]-3-methyl-1-(pyridazin-3-ylmethyl)imidazo[4,5-b]pyridin-2-one]	0.028	–	–
O=c1[nH]c2ncc(-c3cccc(C(F)(F)F)c3)cc2n1CCN1CCCCC1 [Example 161, 1-[2-(1-Piperidyl)ethyl]-6-[3-(trifluoromethyl)phenyl]-3H-imidazo[4,5-b]pyridin-2-one]	–	1.43	–
Cn1c(=O)n(Cc2ncccn2)c2cc(-c3ccc(F)c(F)c3)cnc21 [Example 64, 6-(3,4-Difluorophenyl)-3-methyl-1-(pyrimidin-2-ylmethyl)imidazo[4,5-b]pyridin-2-one]	–	3.59	–
Cc1cc(-c2cnc3c(c2)n(Cc2cncc(Cl)c2)c(=O)n3C)sc1Cl [Example 372, 6-(5-Chloro-4-methyl-2-thienyl)-1-[(5-chloro-3-pyridyl)methyl]-3-methyl-imidazo[4,5-b]pyridin-2-one]	6.64	–	–
CC1(NC(=O)Cn2c(=O)[nH]c3ncc(-c4cccc(C(F)(F)F)c4)cc32)CC(F)(F)C1 [Example 209, N-(3,3-Difluoro-1-methyl-cyclobutyl)-2-[2-oxo-6-[3-(trifluoromethyl)phenyl]-3H-imidazo[4,5-b]pyridin-1-yl]acetamide]	–	0.443	–
Cc1ncc(-c2cnc3c(c2)n(CC(=O)N2CCC2)c(=O)n3C)s1 [Example 112, 1-[2-(Azetidin-1-yl)-2-oxo-ethyl]-3-methyl-6-(2-methylthiazol-5-yl)imidazo[4,5-b]pyridin-2-one]	–	5.1	–
Cn1cnc(Cn2c(=O)[nH]c3ncc(-c4ccc(F)cc4)cc32)n1 [Example 141, 6-(4-Fluorophenyl)-1-[(1-methyl-1,2,4-triazol-3-yl)methyl]-3H-imidazo[4,5-b]pyridin-2-one]	–	1.18	–

SMILES	IC50 [1] [µM]	IC50 [2] [µM]	also measured
Cc1cc(F)ccc1-c1cnc2[nH]c(=O)n(CC(=O)NC3CC3)c2c1 [Example 36, N-Cyclopropyl-2-[6-(4-fluoro-2-methyl-phenyl)-2-oxo-3H-imidazo[4,5-b]pyridin-1-yl]acetamide]	–	0.159	–
Cn1c(=O)n(CC(=O)N2CCC2)c2cc(-c3cc(C(F)F)cs3)cnc21 [Example 117, 1-[2-(Azetidin-1-yl)-2-oxo-ethyl]-6-[4-(difluoromethyl)-2-thienyl]-3-methyl-imidazo[4,5-b]pyridin-2-one]	–	0.038	–
O=C(Cn1c(=O)[nH]c2ncc(-c3cccc(C(F)(F)F)c3)cc21)C1CC1 [Example 239, 1-(2-Cyclopropyl-2-oxo-ethyl)-6-[3-(trifluoromethyl)phenyl]-3H-imidazo[4,5-b]pyridin-2-one]	–	0.034	–
Cn1c(=O)n(CC(=O)NC2(C)COC2)c2cc(-c3cccc(C(F)(F)F)c3)cnc21 [Example 199, N-(3-Methyloxetan-3-yl)-2-[3-methyl-2-oxo-6-[3-(trifluoromethyl)phenyl]imidazo[4,5-b]pyridin-1-yl]acetamide]	–	2.66	–
COc1cccc(F)c1-c1cnc2[nH]c(=O)n(Cc3ccccc3C#N)c2c1 [Example 481, 2-[[6-(2-Fluoro-6-methoxy-phenyl)-2-oxo-3H-imidazo[4,5-b]pyridin-1-yl]methyl]benzonitrile]	2.25	–	–
Cn1c(=O)n(Cc2cccnn2)c2cc(-c3cc(F)c(F)c(C(F)(F)F)c3)cnc21 [Example 387, 6-[3,4-Difluoro-5-(trifluoromethyl)phenyl]-3-methyl-1-(pyridazin-3-ylmethyl)imidazo[4,5-b]pyridin-2-one]	0.022	–	–
NC(=O)Cn1c(=O)[nH]c2ncc(-c3cccc(C(F)(F)F)c3)cc21 [Example 432, 2-[2-Oxo-6-[3-(trifluoromethyl)phenyl]-3H-imidazo[4,5-b]pyridin-1-yl]acetamide]	0.962	–	–
Cc1csc(-c2cnc3[nH]c(=O)n(Cc4nc(C)no4)c3c2)c1 [Example 127, 1-[(3-Methyl-1,2,4-oxadiazol-5-yl)methyl]-6-(4-methyl-2-thienyl)-3H-imidazo[4,5-b]pyridin-2-one]	–	0.095	–
COCCNC(=O)Cn1c(=O)[nH]c2ncc(-c3cc(F)cc(F)c3)cc21 [Example 610, 2-[6-(3,5-Difluorophenyl)-2-oxo-3H-imidazo[4,5-b]pyridin-1-yl]-N-(2-methoxyethyl)acetamide]	1.79	–	–
CCOc1ccccc1-c1cnc2[nH]c(=O)n(Cc3cccc(F)c3)c2c1 [Example 497, 6-(2-Ethoxyphenyl)-1-[(3-fluorophenyl)methyl]-3H-imidazo[4,5-b]pyridin-2-one]	–	–	IC50 [3]: 1.95 µM
Cc1cccc(-c2cnc3c(c2)n(Cc2cccnc2)c(=O)n3C)c1F [Example 357, 6-(2-Fluoro-3-methyl-phenyl)-3-methyl-1-(3-pyridylmethyl)imidazo[4,5-b]pyridin-2-one]	0.118	–	–
Cn1c(=O)n(CC(=O)N2CC(F)C2)c2cc(-c3ccc(C(F)(F)F)s3)cnc21 [Example 327, 1-[2-(3-Fluoroazetidin-1-yl)-2-oxo-ethyl]-3-methyl-6-[5-(trifluoromethyl)-2-thienyl]imidazo[4,5-b]pyridin-2-one]	0.071	–	–
Cc1cccc(-c2cnc3c(c2)n(CC(=O)N2CC(F)(F)C2)c(=O)n3C)c1 [Example 581, 1-[2-(3,3-Difluoroazetidin-1-yl)-2-oxo-ethyl]-3-methyl-6-(m-tolyl)imidazo[4,5-b]pyridin-2-one]	0.032	–	–
CNC(=O)Cn1c(=O)[nH]c2ncc(-c3ccc(Cl)cc3)cc21 [Example 436, 2-[6-(4-Chlorophenyl)-2-oxo-3H-imidazo[4,5-b]pyridin-1-yl]-N-methyl-acetamide]	–	–	IC50 [3]: 4.7 µM
CCOc1ccccc1-c1cnc2[nH]c(=O)n(CC(=O)NC)c2c1 [Example 441, 2-[6-(2-Ethoxyphenyl)-2-oxo-3H-imidazo[4,5-b]pyridin-1-yl]-N-methyl-acetamide]	–	–	IC50 [3]: 2.44 µM
O=C(Cn1c(=O)[nH]c2ncc(-c3ccc(F)c(Cl)c3)cc21)c1cccs1 [Example 464, 6-(3-Chloro-4-fluoro-phenyl)-1-[2-oxo-2-(2-thienyl)ethyl]-3H-imidazo[4,5-b]pyridin-2-one]	0.359	–	–
Cn1c(=O)n(Cc2cccnc2)c2cc(-c3ccc(C(F)(F)F)s3)cnc21 [Example 364, 3-Methyl-1-(3-pyridylmethyl)-6-[5-(trifluoromethyl)-2-thienyl]imidazo[4,5-b]pyridin-2-one]	0.168	–	–
O=c1[nH]c2ncc(-c3cccc(OC(F)F)c3)cc2n1Cc1cccnc1 [Example 300, 6-[3-(Difluoromethoxy)phenyl]-1-(3-pyridylmethyl)-3H-imidazo[4,5-b]pyridin-2-one]	–	0.03	–
